Source: ChEMBL document CHEMBL3227972, “Correlation of carbonic anhydrase inhibitory activities of benzenesulfonamides with the data obtained by use of nitrogen-14 nuclear quadrupole resonance” (J Med Chem, 1979)

Organism: Homo sapiens
Assay: Inhibition of carbonic anhydrase (unknown origin) relative to sulfanilamide

Compound	fold change (FC)
Cc1ccccc1S(N)(=O)=O	1.8
Nc1cccc(S(N)(=O)=O)c1	2.5
NS(=O)(=O)c1ccc(Cl)cc1	18

Results, then the compound that gave them:

fold change (FC)	Compound
4	NS(=O)(=O)c1ccccc1
1	Nc1ccc(S(N)(=O)=O)cc1
23	NS(=O)(=O)c1ccc([N+](=O)[O-])cc1
